Experimental findings from patent publication US5670331A, “Methods for optimizing fluoropyrimidine cancer therapy” (The University of Alabama Research Foundation, priority 1995, dated 1997) are described below.

SMILES strings stand for the structures.

Assay type in all cases: biochemical
In experiment [1] the test system is Nucleoside Phosphorylase. Put plainly: Pyrimidine nucleoside phosphorylase kinetics, human liver. Particulars: substrate of nucleoside phosphorylase; for Km / Vmax: 37° C. The method, then: (§1) Enzyme activities were determined isotopically as the products, nucleotides, nucleosides, bases, β-amino-acid, etc. formed from their respective radiolabeled substrates, bases and/or nucleosides. All assays were run at 37° C. under conditions where activity was linear with time and enzyme concentration. […] Reactions were started by the addition of extract and stopped by boiling in a water bath for 2 minutes followed by freezing. Precipitated proteins were removed by centrifugation. A 10-25 μl aliquot of the supernatant fluid was spotted on the appropriate TLC plate and developed in the appropriate solvent system. Separated substrate and product(s) were counted on a TLC Analyzer (Berthold). The amounts of substrate and product(s) were calculated on a percentage basis.
(§2) The assay mixture contained Buffer A, 33-600 μM radiolabeled nucleoside ([2-^14 C]uridine, [2-^14 C]thymidine or [2-^14 C]5-fluoro-2'-deoxyuridine), and 50 μl of sonicate in a final volume of 100 μl. After termination of the reaction and centrifugation, the nucleosides were separated from their respective nucleobases on silica gel TLC plate developed with chloroform:methanol:acetic acid (90:5:5 v/v/v). When assaying patients, the assay is run at about 226 μM 5-fluoro-2'-deoxyuridine, about 169 μM thymidine or about 114 μM uridine.
(§3) The apparent Km and Vmax, as well as the enzyme efficiency values were calculated using computer programs based on Wilkinson-Cleland procedures. Because of the number of patients used, a two-tailed t-test was applied to determine the degree of significance of the difference in enzymatic activities between healthy volunteers, tolerant and intolerant subjects.

The test system of experiment [2] is Nucleoside Kinases. Nature of the experiment: Pyrimidine nucleoside kinase kinetics, human liver. The note with it: substrate of nucleoside kinases; for Km / Vmax: 37° C. The method, then: as §1
(§4) The assay mixture contained 50 mM Tris-Cl, pH 7.4; 3-60 μM radiolabeled nucleoside ([2-^14 C]thymidine or [2-^14 C]5-fluoro-2'-deoxyuridine); 2.5 mM ATP; 5 mM creatine phosphate; 25 mM NaF; and 50 μl of sonicate to which was added a dash of phosphocreatine kinase in a final volume of 100 μl. After termination of the reaction and centrifugation, the supernatant was spotted on silica gel TLC plates. The plates were developed in a solution of chloroform:methanol:acetic acid (56:24:4, v/v/v) to separate the nucleosides which migrate with the front from the nucleotides which remain at the origin. When assaying patients, the assays are run at about 4.4 μM 5-fluoro-2'-deoxyuridine or about 6.4 μM thymidine.
as §3

Experiment [3] has as its system Nucleoside Kinases. Put plainly: Pyrimidine nucleoside kinase kinetics, human mononuclear cell sonicate. The note with it: substrate of nucleoside kinases, human mononuclear cells; for Km / Vmax: 37° C. As for the experimental part:
(§5) All procedures are carried out at room temperature, using solutions preheated to 37° C. Blood samples were withdrawn in aliquots of 30 ml into 60 ml syringes, containing 5 ml heparin (1,000 Units/ml). Blood and heparin were immediately mixed by inverting the syringes. The mixture was layered onto HISTOPAQUE-1077 (15 ml), in a 50 ml conical centrifuge tube and centrifuged for 30 minutes at 400 ×g. The upper layer was then aspirated with a Pasteur pipet and discarded, while the opaque interface containing the mononuclear cells was aspirated into a fresh conical tube containing 10 ml growth medium (RPMI-1640 medium: 5% FBS:0.050M HEPES, pH 7.4) and mixed by inverting the tubes. The cells were pelleted by centrifugation for 10 minutes at 250 ×g then resuspended into fresh growth medium by gentle aspiration with a Pasteur pipet. After two more washing, the cells were suspended into 10 ml fresh growth media.
(§6) The following buffers were used: Buffer A (20 mM potassium phosphate, pH 8.0) and Buffer B (50 mM Tris-Cl, pH 7.5). Mononuclear cells were washed 2-3 times as described above except that buffer B was substituted for the growth medium. The cells were then sonicated (1:2 v/v) in buffer B using a sonic dismembrator (Fisher model 300). The sonicate was then used as the enzyme source.
as §1, §4, §3

Experiment [4] concerns Nucleoside Phosphorylase. Nature of the experiment: Pyrimidine nucleoside phosphorylase kinetics, human mononuclear cell sonicate. The note with it: substrate of nucleoside phosphorylase, human mononuclear cells; for Km / Vmax: 37° C. The method, then: as §5, §6, §1, §2, §3

What is called Km is the concentration of substrate that gives half-maximal velocity. What is called Vmax is the top rate of the reaction or transport when substrate is in excess. Turning to `Cc1cn([C@H]2C[C@H](O)[C@@H](CO)O2)c(=O)[nH]c1=O` [Thymidine, thymidine], the “Vmax /Km” value was determined as 76.15 min^-1 × 10^3 with Nucleoside Phosphorylase [1], 4.00 min^-1 × 10^3 in the experiment with Nucleoside Kinases [2], 2.40 min^-1 × 10^3 in the experiment with Nucleoside Kinases [3] and 6.34 min^-1 × 10^3 in the experiment with Nucleoside Phosphorylase [4]. Besides, the Km in the experiment with Nucleoside Phosphorylase [1] amounted to 256 µM; with Nucleoside Kinases [2] it was 6.41 µM; in the experiment on Nucleoside Kinases [3], 6.45 µM; in the experiment on Nucleoside Phosphorylase [4], 168 µM. The Vmax in the experiment on Nucleoside Phosphorylase [1] was determined as 19.471 nmol/min/mg; with Nucleoside Kinases [2], 0.025 nmol/min/mg; in the experiment on Nucleoside Kinases [3] it was 0.015 nmol/min/mg; with Nucleoside Phosphorylase [4] it was 1.068 nmol/min/mg.

With `O=c1[nH]c(=O)n([C@@H]2O[C@H](CO)[C@@H](O)[C@H]2O)cc1F` [5-Fluorouridine], in the experiment on Nucleoside Phosphorylase [1], the “Vmax /Km” value was 8.62 min^-1 × 10^3, the Michaelis constant (Km) was found to be 286 µM and the Vmax is 2.470 nmol/min/mg. Besides, in the experiment with Nucleoside Kinases [2], the “Vmax /Km” value was 0.50 min^-1 × 10^3, the Km was determined as 25.1 µM and the Vmax is 0.013 nmol/min/mg.

As to `O=c1[nH]c(=O)n([C@H]2C[C@H](O)[C@@H](CO)O2)cc1F` [5-Fluoro-2'-deoxyuridine, 5-fluoro-2'-deoxyuridine], the “Vmax /Km” value with Nucleoside Phosphorylase [1] stood at 111.90 min^-1 × 10^3; in the experiment with Nucleoside Kinases [2], 5.17 min^-1 × 10^3; with Nucleoside Kinases [3], 2.89 min^-1 × 10^3; in the experiment with Nucleoside Phosphorylase [4], 6.22 min^-1 × 10^3. Moreover, the Km in the experiment with Nucleoside Phosphorylase [1] worked out at 215 µM; with Nucleoside Kinases [2], 3.1 µM; with Nucleoside Kinases [3], 4.39 µM; with Nucleoside Phosphorylase [4], 226 µM. The Vmax in the experiment with Nucleoside Phosphorylase [1] is given as 24.041 nmol/min/mg; with Nucleoside Kinases [2], 0.016 nmol/min/mg; in the experiment on Nucleoside Kinases [3] it was 0.013 nmol/min/mg; in the experiment on Nucleoside Phosphorylase [4] it was 1.404 nmol/min/mg.

Consider `O=c1ccn([C@@H]2O[C@H](CO)[C@@H](O)[C@H]2O)c(=O)[nH]1` [Uridine, uridine], for which the “Vmax /Km” value in the experiment on Nucleoside Phosphorylase [1] is on record as 172.00 min^-1 × 10^3; in the experiment on Nucleoside Kinases [2], 0.55 min^-1 × 10^3; in the experiment on Nucleoside Kinases [3], 7.00 min^-1 × 10^3; in the experiment with Nucleoside Phosphorylase [4], 3.79 min^-1 × 10^3. For the same molecule, the Km with Nucleoside Phosphorylase [1] was found to be 99.1 µM; in the experiment with Nucleoside Kinases [2], 55.8 µM; with Nucleoside Kinases [3], 40.3 µM; in the experiment on Nucleoside Phosphorylase [4], 114 µM. The Vmax in the experiment on Nucleoside Phosphorylase [1] is 1.703 nmol/min/mg; in the experiment with Nucleoside Kinases [2], 0.031 nmol/min/mg; in the experiment with Nucleoside Kinases [3] it was 0.027 nmol/min/mg; in the experiment on Nucleoside Phosphorylase [4], 0.431 nmol/min/mg.
